Assays:
[1] = tested on: A549 cancer cells; experiment: In vitro combination study with Compound 1, Cell Titer-Glo (ATP) cell viability, 72 h; format: cell-based; details: DNA damaging agent combined with Compound 1; 72 h;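 note: Ten-by-ten dose matrices of the two agents in duplicate, compounds added 16 h post-plating, activity relative to DMSO vehicle wells, call reflects synergy evaluation from luminescence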
Protocol: (§3) Each combination pair was evaluated in an individual 384-well plate which contained variable doses of both compounds as single agents, as well as two, ten-by-ten matrices (in duplicate) that contained mixtures of the two test compounds. In brief, compounds were added to the cell test plates 16 hours after cell plating and then assessed for viability 72 hours later. Continuous cultures of tumor cells were maintained under standard cell culturing conditions (i.e. in a humidified chamber set at 37° C., containing atmosphere 5% carbon dioxide). […] Seventy-two hours after compound addition, ATP levels were measured to assess cell viability. Plating densities were chosen to ensure optimal linear growth over the 72 hour period.
(§4) Compound dilution and compound delivery to the assay plates were done on HighRes Robotic System (HighRes Biosolutions, Woburn, Mass., USA) with Echo™ Liquid Handler (Labcyte, Sunnyvale, Calif., USA). […] Next, these were used for compound transfer into cell assay plates. All wells were back-filled to give a constant percentage of DMSO.
(§5) The final DMSO concentration was held constant in all wells across the plate and was maintained at less than 0.5%. […] Cells treated with vehicle (DMSO) in two rows, or single compound serial dilutions in one plate columns/row served as the untreated control and single compound controls, respectively.
(§6) Compound activity in A549, COLO205, H460, HCT116, SW48, SW620 cancer cell lines was assessed using Cell Titer-Glo® (Promega [Madison, Wis., USA]). After 72 hours incubation, the plates were treated as per package insert protocol for the Promega Luminescence ATP Detection Systems. Briefly, 25 μL of cell lysis/substrate solution (provided in kit form) was added to each well and the plate was incubated at room temperature for 10 minutes. Luminescence was measured using a PHERAstar multi-label counter (BMG Labtech [Ortenberg, Germany]) or LEADseeker (GE Healthcare Life Sciences [Piscataway, N.J., USA]).
(§7) Numerical luminescence values were analyzed to generate EC50 curves and evaluate synergy. Raw Data reader files were uploaded along with automation workfiles that defined the plate and well contents. Percent activities were calculated for each well versus plate controls.
(§8) Each plate representing a single drug combination was analyzed separately. First, the viability measurements were normalized by scaling the data so that the median of the negative controls was 0 and the median of the positive controls was 100.
(§9) For the combination analysis, a response surface model was used to describe the relationship between the normalized viability and the drug concentrations. The data were fit to the model by minimizing the residual sum of squares. Based on the fitted response surface, plots of constant viability, called isobolograms, were produced.
(§10) The Combination Index and Nonlinear Blending were used as measures of drug synergy. To calculate Combination Index the 50% isobologram (which is the dose contour that has 50% viability) was used. […] A standard procedure was created to produce a call in order to characterize the viability effects for each combination (synergy, additivity, subadditivity, or antagonism). If the Combination Index existed then these measures were used to make the call.

[2] = tested on: DU-145 (Prostate); experiment: In vivo combination study, Cell Derived Xenograft; set-up: species or system mouse; details: DU-145 (165 mm^3); Compound 1 60 mg/kg once daily Day 1-21; drug 40 mg/kg intraperitoneally Days 1,4,8,11,15,18
Protocol: (§1) To investigate in vivo antitumor activity of Compound 1 in combination with other agents, tests using Cell Derived Xenograft (CDX), Patient Derived Xenograft (PDX) and Syngeneic mouse tumor isograft model were conducted. Cells or Patient Derived Tumors were inoculated by one method of the following two methods (Method A and B) as shown Table 7.
Method A; Cells were maintained in either immune deficient nude mice or immune competent mice by subcutaneous inoculation of tumor cells at various concentrations into respected mice. Method B: Patient Derived Tumor s were maintained in nude mice by subcutaneous inoculation of tumor pieces (approx. 2×2×2 mm) into nude mice. […]
Tumor size was measured by caliper and tumor volume was estimated using the equation V=(LW^2)/2, where L and W are tumor length and width, respectively and reported in cubic millimeters. […]
For synergy analyses, the observed differences in the log tumor values were used to calculate AUC values for each animal. […] The AUC for the control, or vehicle, group was calculated using the predicted values from the pairwise models described above. […]
where Ak and Bk are the k^th animal in the individual treatment groups and ABk is the k^th animal in combination treatment group. […] The standard error of the synergy score was calculated as the square root of the sum of squared standard errors across groups A, B, and AB. […]

[3] = tested on: ovarian cancer (SKOV3) cell line; experiment: In vitro combination study for selected compounds, additional cell lines; format: cell-based; details: drug combined with Compound 1
Protocol: (§2) In vitro anti-proliferative effects of selected compounds were tested in additional cell lines, including ovarian cancer (SKOV3) and pancreatic cancer (MIA-PACA-2) cell lines.

[4] = tested on: H-1650 (Lung); experiment: as above; format: cell-based; details: drug combined with Compound 1
Protocol: as §2

[5] = tested on: CALU6 (Lung); experiment: as above; format: cell-based; details: drug combined with Compound 1
Protocol: as §2

[6] = tested on: COLO205 cancer cells; experiment: In vitro combination study with Compound 1, Cell Titer-Glo (ATP) cell viability, 72 h; format: cell-based, human; details: DNA damaging agent combined with Compound 1; 72 h;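 note: Ten-by-ten dose matrices of both agents in duplicate plus single-agent dilutions, luminescent ATP read-out, percent activity per well relative to DMSO vehicle wells, synergy call from these matrices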
Protocol: as §3, §4, §5, §6, §7, §8, §9, §10

[7] = tested on: SW620 cancer cells; experiment: as above; format: cell-based; details: DNA damaging agent combined with Compound 1; 72 h;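 note: Ten-by-ten dose matrices of both drugs in 384-well plates, luminescent ATP read-out, synergy evaluated against single-agent and DMSO vehicle controls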
Protocol: as §3, §4, §5, §6, §7, §8, §9, §10

[8] = tested on: H460 cancer cells; experiment: as above; format: cell-based; details: DNA damaging agent combined with Compound 1; 72 h;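 note: Ten-by-ten dose matrices of both drugs alongside single-agent dilutions, luminescence read 72 hours after compound addition, percent activity per well versus vehicle (DMSO) plate controls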
Protocol: as §3, §4, §5, §6, §7, §8, §9, §10

[9] = tested on: PHTX-249Pa human primary pancreatic xenografts; experiment: In vivo combination study, Patient Derived Xenograft; set-up: species or system mouse
[10] = tested on: PHTXM-97Pa (Pancreatic); experiment: as above; set-up: species or system mouse
[11] = tested on: HCT116 cancer cells; experiment: In vitro combination study with Compound 1, Cell Titer-Glo (ATP) cell viability, 72 h; format: cell-based; details: DNA damaging agent combined with Compound 1; 72 h;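 note: combination call from 10×10 dose matrices in duplicate, graded by synergy, with percent activity per well relative to DMSO vehicle controls on the same plate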
[12] = tested on: Panc02 (Pancreatic); experiment: In vivo combination study, syngeneic mouse tumor isograft model
Protocol: as §1
Method A; Cells were maintained in either immune deficient nude mice or immune competent mice by subcutaneous inoculation of tumor cells at various concentrations into respected mice. Method B: Patient Derived Tumor s were maintained in nude mice by subcutaneous inoculation of tumor pieces (approx. 2×2×2 mm) into nude mice. Mice with tumor size of approximately 50 mm^3 (e.g., 40-75 mm^3) for syngeneic mouse studies or 200 mm^3 (e.g., 110-270 mm^3) for xenograft studies were randomly assigned to dose groups on the day (Day 0) before start date of dosing.
Compound 1 (crystalline form I) was suspended in 0.5 w/v % methylcellulose and administered orally to mice. Antibodies which administered in the experiment were described in Table 8.
Tumor size was measured by caliper and tumor volume was estimated using the equation V=(LW^2)/2, where L and W are tumor length and width, respectively and reported in cubic millimeters.
These values were compared across treatment groups to assess whether the differences in the trends over time were statistically significant. To compare pairs of treatment groups, the following mixed-effects linear regression model was fit to the data using the maximum likelihood method:
For synergy analyses, the observed differences in the log tumor values were used to calculate AUC values for each animal. In instances when an animal in a treatment group was removed from the study, the last observed tumor value was carried forward through all subsequent time points. The AUC for the control, or vehicle, group was calculated using the predicted values from the pairwise models described above. We defined a measure of synergy as follows:
where Ak and Bk are the k^th animal in the individual treatment groups and ABk is the k^th animal in combination treatment group. AUCcd is the model-predicted AUC for the control group and was treated as a constant with no variability. The standard error of the synergy score was calculated as the square root of the sum of squared standard errors across groups A, B, and AB. The degrees of freedom were estimated using the Welch-Satterthwaite equation. A hypothesis test was performed to determine if the synergy score differed from 0. P values were calculated by dividing the synergy score by its standard error and tested against a t-distribution (two-tailed) with the above-calculated degrees of freedom.
The effect was classified into four different categories. It was considered synergistic if the synergy score was less than 0 and additive if the synergy score wasn't statistically different from 0. If the synergy score was greater than zero, but the mean AUC for the combination was lower than the lowest mean AUC among the two single agent treatments, then the combination was sub-additive. If the synergy score was greater than zero, and the mean AUC for the combination was greater than the mean AUC for at least one of the single agent treatments, then the combination was antagonistic.

## Nc1ccn([C@@H]2O[C@H](CO)[C@@H](O)C2(F)F)c(=O)n1 [Gemcitabine]
[1]
  Call, anti-proliferative effect of combination with Compound 1, A549: Antagonism (>2)
[2]
  Result (combination with Compound 1, tumor growth): Additive
[3]
  In vitro combination effect with Compound 1, Ovary SKOV3: Additive
[4]
  In vitro combination effect with Compound 1, Lung H-1650: Antagonism
[5]
  In vitro combination effect with Compound 1, Lung CALU6: Additive
[6]
  Call, anti-proliferative effect of combination with Compound 1, COLO205: Additivity (0.7 to 1.3)
[7]
  Call, anti-proliferative effect of combination with Compound 1, SW620: Additivity (0.7 to 1.3)
[8]
  Call, anti-proliferative effect of combination with Compound 1, H460: Subadditivity (1.3 to 2)
[9]; PHTX-249Pa (165 mm^3), Compound 1 40 mg/kg once daily Day 1-21, drug 20 mg/kg intraperitoneally Days 1,4,8,11,15,18
  Result (combination with Compound 1, tumor growth): Additive
[9]; PHTX-249Pa (165 mm^3), Compound 1 40 mg/kg once daily Day 1-21, drug 40 mg/kg intraperitoneally Days 1,4,8,11,15,18
  Result (combination with Compound 1, tumor growth): subadditive
[9]; PHTX-249Pa (165 mm^3), Compound 1 60 mg/kg once daily Day 1-21, drug 20 mg/kg intraperitoneally Days 1,4,8,11,15,18
  Result (combination with Compound 1, tumor growth): Additive
[9]; PHTX-249Pa (165 mm^3), Compound 1 60 mg/kg once daily Day 1-21, drug 40 mg/kg intraperitoneally Days 1,4,8,11,15,18
  Result (combination with Compound 1, tumor growth): subadditive
[9]; PHTX-249Pa (180 mm^3) FIG. 6A, Compound 1 20 mg/kg once daily Day 1-21, drug 5 mg/kg intraperitoneally Days 1,4,8,11,15,18
  Result (combination with Compound 1, tumor growth): Synergistic
[9]; PHTX-249Pa (180 mm^3) FIG. 6A, Compound 1 20 mg/kg once daily Day 1-21, drug 20 mg/kg intraperitoneally Days 1,4,8,11,15,18
  Result (combination with Compound 1, tumor growth): Additive
[9]; PHTX-249Pa (180 mm^3) FIG. 6A, Compound 1 40 mg/kg once daily Day 1-21, drug 5 mg/kg intraperitoneally Days 1,4,8,11,15,18
  Result (combination with Compound 1, tumor growth): Additive
[9]; PHTX-249Pa (180 mm^3) FIG. 6A, Compound 1 40 mg/kg once daily Day 1-21, drug 20 mg/kg intraperitoneally Days 1,4,8,11,15,18
  Result (combination with Compound 1, tumor growth): subadditive
[9]; combined with Compound 1, PHTX-249 Pa human primary pancreatic xenografts, FIG. 6A
  antitumor activity: strong antitumor activity compared to either single treatment alone
[10]; PHTXM-97Pa (180 mm^3), Compound 1 20 mg/kg once daily Day 1-21, drug 5 mg/kg intraperitoneally Days 1,4,8,11,15,18
  Result (combination with Compound 1, tumor growth): subadditive
[10]; PHTXM-97Pa (180 mm^3), Compound 1 20 mg/kg once daily Day 1-21, drug 20 mg/kg intraperitoneally Days 1,4,8,11,15,18
  Result (combination with Compound 1, tumor growth): Additive
[10]; PHTXM-97Pa (180 mm^3), Compound 1 40 mg/kg once daily Day 1-21, drug 5 mg/kg intraperitoneally Days 1,4,8,11,15,18
  Result (combination with Compound 1, tumor growth): subadditive
[10]; PHTXM-97Pa (180 mm^3), Compound 1 40 mg/kg once daily Day 1-21, drug 20 mg/kg intraperitoneally Days 1,4,8,11,15,18
  Result (combination with Compound 1, tumor growth): subadditive
[10]; PHTXM-97Pa (210 mm^3), Compound 1 40 mg/kg once daily Day 1-21, drug 20 mg/kg intraperitoneally Days 1,4,8,11,15,18
  Result (combination with Compound 1, tumor growth): subadditive
[10]; PHTXM-97Pa (210 mm^3), Compound 1 40 mg/kg once daily Day 1-21, drug 40 mg/kg intraperitoneally Days 1,4,8,11,15,18
  Result (combination with Compound 1, tumor growth): subadditive
[10]; PHTXM-97Pa (210 mm^3), Compound 1 60 mg/kg once daily Day 1-21, drug 20 mg/kg intraperitoneally Days 1,4,8,11,15,18
  Result (combination with Compound 1, tumor growth): subadditive
[10]; PHTXM-97Pa (210 mm^3), Compound 1 60 mg/kg once daily Day 1-21, drug 40 mg/kg intraperitoneally Days 1,4,8,11,15,18
  Result (combination with Compound 1, tumor growth): subadditive
[11]
  Call, anti-proliferative effect of combination with Compound 1, HCT116: Additivity (0.7 to 1.3)
[12]; Panc02 (75 mm^3), Compound 1 60 mg/kg orally QD day 0-20, drug 5 mg/kg intraperitoneally QD on Day 0,3,6,9,12
  Result (combination with Compound 1, tumor growth): Additive
[12]; note to Table 9, by note order: Gemcitabine study in Panc02 (75 mm^3)
  CR per group: 0 CR in Gemcitabine group and 0 CR in Compound 1 group, and 0 CR in Compound 1/Gemcitabine combo group
